These results are taken from patent US10479784B2, “Substituted pyrazin-2-amines as inhibitors of ATR kinase” (Vertex Pharmaceuticals Incorporated, priority 2008, dated 2019).

Molecules are shown by their SMILES. Bounds are passed on as bounds.

This experiment deals with full-length ATR (Homo sapiens (Human), UniProt Q13535). Put plainly: ATR Inhibition Assay (radioactive-phosphate incorporation). To be noted: read-out: ATR Ki. Type of experiment: biochemical. The method in brief: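 Full-length human ATR (5 nM) was assayed at 25 °C in 50 mM Tris/HCl pH 7.5, 10 mM MgCl2, 1 mM DTT, with 10 μM [γ-33P]ATP and 800 μM peptide, after 10-min compound preincubation. Reactions were stopped after 24 h, captured on phosphocellulose and counted; Ki(app) came from non-linear regression of initial rates.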
Chain of full-length ATR (Q13535 whole entry): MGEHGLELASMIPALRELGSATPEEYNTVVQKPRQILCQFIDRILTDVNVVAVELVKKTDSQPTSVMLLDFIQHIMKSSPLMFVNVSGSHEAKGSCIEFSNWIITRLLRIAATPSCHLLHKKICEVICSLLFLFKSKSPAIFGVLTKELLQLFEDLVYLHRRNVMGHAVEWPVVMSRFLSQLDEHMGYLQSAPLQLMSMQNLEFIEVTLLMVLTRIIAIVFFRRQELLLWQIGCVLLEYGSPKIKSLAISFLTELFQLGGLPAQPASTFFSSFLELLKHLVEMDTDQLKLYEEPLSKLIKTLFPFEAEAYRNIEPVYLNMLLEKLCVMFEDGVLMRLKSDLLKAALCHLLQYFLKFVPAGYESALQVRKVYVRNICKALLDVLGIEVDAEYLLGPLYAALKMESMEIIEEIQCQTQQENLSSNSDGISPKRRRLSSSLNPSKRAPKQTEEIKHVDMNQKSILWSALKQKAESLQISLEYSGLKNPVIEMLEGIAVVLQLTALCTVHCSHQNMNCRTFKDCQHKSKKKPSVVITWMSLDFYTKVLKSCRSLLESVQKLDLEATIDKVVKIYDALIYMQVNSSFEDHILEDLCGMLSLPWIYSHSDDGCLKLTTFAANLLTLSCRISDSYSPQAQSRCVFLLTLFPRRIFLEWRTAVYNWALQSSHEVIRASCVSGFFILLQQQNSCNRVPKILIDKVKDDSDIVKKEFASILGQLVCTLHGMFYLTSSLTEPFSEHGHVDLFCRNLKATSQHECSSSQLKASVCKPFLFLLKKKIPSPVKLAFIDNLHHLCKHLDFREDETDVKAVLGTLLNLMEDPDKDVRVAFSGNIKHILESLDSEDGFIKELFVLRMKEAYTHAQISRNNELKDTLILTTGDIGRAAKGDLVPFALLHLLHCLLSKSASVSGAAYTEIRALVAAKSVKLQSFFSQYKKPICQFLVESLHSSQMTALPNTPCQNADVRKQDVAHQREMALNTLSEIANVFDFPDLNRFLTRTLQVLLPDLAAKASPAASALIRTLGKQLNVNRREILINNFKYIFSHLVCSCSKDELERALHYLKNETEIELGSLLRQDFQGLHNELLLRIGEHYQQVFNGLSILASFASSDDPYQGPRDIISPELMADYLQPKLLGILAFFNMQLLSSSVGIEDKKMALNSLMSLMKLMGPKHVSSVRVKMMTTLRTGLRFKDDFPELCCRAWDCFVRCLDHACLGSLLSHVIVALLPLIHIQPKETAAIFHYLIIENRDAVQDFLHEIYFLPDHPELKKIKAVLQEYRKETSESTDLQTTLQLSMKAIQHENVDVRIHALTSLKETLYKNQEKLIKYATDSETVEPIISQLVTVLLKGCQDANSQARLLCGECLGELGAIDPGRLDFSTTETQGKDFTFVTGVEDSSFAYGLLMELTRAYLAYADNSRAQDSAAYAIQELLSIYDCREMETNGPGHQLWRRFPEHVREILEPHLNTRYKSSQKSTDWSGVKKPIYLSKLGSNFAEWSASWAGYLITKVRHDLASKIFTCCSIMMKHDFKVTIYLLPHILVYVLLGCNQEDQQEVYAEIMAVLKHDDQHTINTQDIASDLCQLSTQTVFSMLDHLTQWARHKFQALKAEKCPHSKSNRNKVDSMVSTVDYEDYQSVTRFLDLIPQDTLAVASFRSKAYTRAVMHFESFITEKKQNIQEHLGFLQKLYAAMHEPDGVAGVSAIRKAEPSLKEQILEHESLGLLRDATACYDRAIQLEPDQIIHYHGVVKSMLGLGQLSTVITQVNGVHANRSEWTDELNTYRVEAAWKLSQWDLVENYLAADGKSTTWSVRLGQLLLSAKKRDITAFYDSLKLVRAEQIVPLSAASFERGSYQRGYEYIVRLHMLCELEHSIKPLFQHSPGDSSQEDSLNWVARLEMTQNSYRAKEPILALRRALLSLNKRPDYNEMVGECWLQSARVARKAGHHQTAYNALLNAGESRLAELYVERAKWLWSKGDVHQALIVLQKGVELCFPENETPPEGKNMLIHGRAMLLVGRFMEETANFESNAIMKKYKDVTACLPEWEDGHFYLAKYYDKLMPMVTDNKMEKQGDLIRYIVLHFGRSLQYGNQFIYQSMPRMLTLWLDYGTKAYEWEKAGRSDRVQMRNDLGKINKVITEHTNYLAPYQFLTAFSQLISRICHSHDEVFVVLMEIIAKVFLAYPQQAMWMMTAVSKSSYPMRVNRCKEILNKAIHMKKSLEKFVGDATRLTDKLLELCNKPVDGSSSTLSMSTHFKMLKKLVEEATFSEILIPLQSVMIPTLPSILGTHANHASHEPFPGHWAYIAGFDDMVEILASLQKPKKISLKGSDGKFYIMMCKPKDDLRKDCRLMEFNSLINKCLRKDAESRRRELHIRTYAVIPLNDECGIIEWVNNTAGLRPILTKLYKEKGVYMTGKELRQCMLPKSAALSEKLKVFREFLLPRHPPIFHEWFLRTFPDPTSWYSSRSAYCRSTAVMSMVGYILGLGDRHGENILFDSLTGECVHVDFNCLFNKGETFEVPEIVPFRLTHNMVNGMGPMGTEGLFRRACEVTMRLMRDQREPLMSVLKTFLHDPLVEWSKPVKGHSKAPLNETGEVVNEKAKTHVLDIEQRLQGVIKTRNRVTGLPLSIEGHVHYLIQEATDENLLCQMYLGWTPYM

Usually Ki stands for a dissociation constant, usually derived from enzyme kinetics or from competition with a known ligand. As to `N#Cc1cccc(-c2cnc(N)c(-c3nnc(-c4ccccc4)o3)n2)c1` [IA-252, 3-[5-amino-6-(5-phenyl-1,3,4-oxadiazol-2-yl)pyrazin-2-yl]benzonitrile], the Ki was in the range of 10 to 100 nM. Take `CC(C)S(=O)(=O)c1ccc(-c2cnc(N)c(-c3nnc(-c4ccc(CN)cc4)o3)n2)cc1` [IA-222, 3-[5-[4-(aminomethyl)phenyl]-1,3,4-oxadiazol-2-yl]-5-(4-isopropylsulfonylphenyl)pyrazin-2-amine]: the Ki was no more than 10 nM.

As for `CC(=O)NCc1ccc(-c2cnc(N)c(-c3nc4ccccc4[nH]3)n2)cc1` [Compound I-130, N-(4-(5-amino-6-(1H-benzo[d]imidazol-2-yl)pyrazin-2-yl)benzyl) ethanamide], the Ki was 100 to 5000 nM.

As for `CN(C)[C@@H]1CCN(C(=O)c2ccc(-c3cnc(N)c(-c4nnc(-c5ccccc5)o4)n3)cc2F)C1` [IA-5], the Ki was no more than 10 nM. Next, `CC(C)S(=O)(=O)c1ccc(-c2cnc(N)c(-c3nnc(-c4ccc(O)cc4)o3)n2)cc1` [IA-193, 4-[5-[3-amino-6-(4-isopropylsulfonylphenyl)pyrazin-2-yl]-1,3,4-oxadiazol-2-yl]phenol]: no more than 10 nM; `Cc1cccc(-c2nnc(-c3nc(-c4cccnc4)cnc3N)[nH]2)c1` [Compound I-141, 5-(pyridin-3-yl)-3-(5-m-tolyl-4H-1,2,4-triazol-3-yl)pyrazin-2-amine]: 10 to 100 nM; `Nc1ncc(-c2ccc(N3CCNCC3)nc2)nc1-c1nnc(-c2ccccc2)o1` [IA-186, 3-(5-phenyl-1,3,4-oxadiazol-2-yl)-5-(6-piperazin-1-yl-3-pyridyl)pyrazin-2-amine]: 100 to 5000 nM.

As for `CC(C)S(=O)(=O)c1ccc(-c2cnc(N)c(-c3nnc(-c4ccc(CNCCN(C)C)cc4)o3)n2)cc1` [IA-225, N-[[4-[5-[3-amino-6-(4-isopropylsulfonylphenyl)pyrazin-2-yl]-1,3,4-oxadiazol-2-yl]phenyl]methyl]-N′,N′-dimethyl-ethane-1,2-diamine], the Ki lay within 10 to 100 nM. For `COc1ccccc1NC(=O)c1nc(-c2ccco2)cnc1N` [Compound I-30, 3-amino-6-(furan-2-yl)-N-(2-methoxyphenyl)pyrazine-2-carboxamide], the inhibitory constant (Ki) was 10 to 100 nM. Consider `Nc1ncc(-c2cccnc2)nc1C(=O)Nc1ccccc1F` [Compound I-96, 3-amino-N-(2-fluorophenyl)-6-(pyridin-3-yl)pyrazine-2-carboxamide], for which the Ki fell in the range of 100 to 5000 nM.

For the compound `Nc1ncc(-c2cccc(C(=O)N3CCC(CO)CC3)c2)nc1C(=O)Nc1ccccc1` [Compound I-50, 3-amino-6-(3-(4-(hydroxymethyl)piperidine-1-carbonyl)phenyl)-N-phenylpyrazine-2-carboxamide], the Ki was in the range of 100 to 5000 nM. With `NCc1cccc(-c2nnc(-c3nc(-c4cccnc4)cnc3N)[nH]2)c1` [Compound I-143, 3-(5-(3-(aminomethyl)phenyl)-4H-1,2,4-triazol-3-yl)-5-(pyridin-3-yl)pyrazin-2-amine], the inhibition constant Ki is 10 to 100 nM.

With `NC(=O)C1CCN(C(=O)c2cccc(-c3cnc(N)c(C(=O)Nc4ccccc4)n3)c2)CC1` [Compound I-62, 3-amino-6-(3-(4-carbamoylpiperidine-1-carbonyl)phenyl)-N-phenylpyrazine-2-carboxamide], the inhibition constant Ki is 100 to 5000 nM. As for `CN(C)C(=O)c1ccc(-c2cnc(N)c(-c3nnc(NC4CCNCC4)o3)n2)cc1` [IA-54], the Ki lay in the range of 100 to 5000 nM. Consider `N#Cc1cnccc1-c1cnc(N)c(-c2nnc(-c3ccccc3)o2)n1` [IA-35], for which the Ki was no more than 10 nM. Consider `Nc1ncc(-c2ccc(C(=O)N3CCCNCC3)cc2)nc1C(=O)Nc1n[nH]c2ccccc12` [Compound V-8], for which the Ki is no more than 10 nM. For the compound `CC(C)S(=O)(=O)c1ccc(-c2cnc(N)c(-c3nnc(-c4ccc(C(N)C(F)(F)F)cc4)o3)n2)cc1` (stereo in doubt) [IA-325, 3-[5-[4-[(1S)-1-amino-2,2,2-trifluoro-ethyl]phenyl]-1,3,4-oxadiazol-2-yl]-5-(4-isopropylsulfonylphenyl)pyrazin-2-amine], the Ki is 10 to 100 nM. As for `Nc1ncc(-c2ccc(C(=O)N3CCNC(C(F)(F)F)C3)cc2)nc1-c1nnc(-c2ccccc2)o1` (centres unmarked) [IA-16], the Ki was no more than 10 nM. Next, `CC(C)Sc1ccccc1-c1cnc(N)c(-c2nnc(-c3ccccc3)o2)n1` [IA-229, 5-(2-isopropylsulfanylphenyl)-3-(5-phenyl-1,3,4-oxadiazol-2-yl)pyrazin-2-amine]: 100 to 5000 nM. In the case of `Nc1ncc(-c2ccccc2CO)nc1C(=O)Nc1ccccc1` [Compound I-19, 3-amino-6-(2-(hydroxymethyl)phenyl)-N-phenylpyrazine-2-carboxamide], the Ki lay within 10 to 100 nM. For the compound `Cc1ccc2nc(-c3nc(-c4ccc(C(=O)N5CCC(N(C)C)CC5)cc4)cnc3N)[nH]c2c1` [III-2, (4-(5-amino-6-(6-methyl-1H-benzo[d]imidazol-2-yl)pyrazin-2-yl)phenyl)(4-(dimethylamino)piperidin-1-yl)methanone], the Ki lay within 10 to 100 nM. For the compound `CN(C)C(=O)c1ccc(-c2cnc(N)c(C(=O)Nc3ccccc3)n2)cc1` [Compound I-24, 3-amino-6-(4-(dimethylcarbamoyl)phenyl)-N-phenylpyrazine-2-carboxamide], the Ki is 10 to 100 nM. Regarding `CN(C)C(=O)c1ccccc1-c1cnc(N)c(-c2nnc(-c3ccccc3)o2)n1` [IA-244, 2-[5-amino-6-(5-phenyl-1,3,4-oxadiazol-2-yl)pyrazin-2-yl]-N,N-dimethyl-benzamide], the Ki fell in the range of 100 to 5000 nM.

For the compound `CN(C)C(=O)c1ccc(-c2cnc(N)c(-c3nnc(Nc4cccc(C#N)c4)o3)n2)cc1` [IA-254, 4-[5-amino-6-[5-(3-cyanoanilino)-1,3,4-oxadiazol-2-yl]pyrazin-2-yl]-N,N-dimethyl-benzamide], the Ki lay within 100 to 5000 nM. Take `CC(C)S(=O)(=O)c1ccc(-c2cnc(N)c(-c3nnc(-c4cccc(C5CCCN5)c4)o3)n2)cc1` (centres unmarked) [IA-84, 5-(4-isopropylsulfonylphenyl)-3-[5-(3-pyrrolidin-2-ylphenyl)-1,3,4-oxadiazol-2-yl]pyrazin-2-amine]: the Ki is no more than 10 nM. For `Nc1ncc(-c2cccc(C(=O)O)c2)nc1C(=O)Nc1ccccc1` [Compound I-8, 3-(5-amino-6-(phenylcarbamoyl)pyrazin-2-yl)benzoic acid], the Ki was 100 to 5000 nM. On to `CC(C)S(=O)(=O)c1ccc(-c2cnc(N)c(-c3nnc(NC(=O)[C@H]4N[C@H]5CC[C@@H]4C5)o3)n2)cc1` [IA-160, (1R,4S,6S)—N-[5-[3-amino-6-(4-isopropylsulfonylphenyl)pyrazin-2-yl]-1,3,4-oxadiazol-2-yl]-5-azabicyclo[2.2.1]heptane-6-carboxamide], for which the Ki lay in the range of 100 to 5000 nM. Next, `CN(C)C(=O)c1ccc(-c2cnc(N)c(-c3nnc(-c4ccccc4-c4ccsc4)o3)n2)cc1` [IA-127, 4-[5-amino-6-[5-[2-(3-thienyl)phenyl]-1,3,4-oxadiazol-2-yl]pyrazin-2-yl]-N,N-dimethyl-benzamide]: 10 to 100 nM. `CNCc1ccc(-c2nnc(-c3nc(-c4ccc(S(=O)(=O)NCCO)cc4)cnc3N)o2)cc1` [IA-304, 4-[5-amino-6-[5-[4-(methylaminomethyl)phenyl]-1,3,4-oxadiazol-2-yl]pyrazin-2-yl]-N-(2-hydroxyethyl)benzenesulfonamide]: the Ki is no more than 10 nM.

On to `Nc1ncc(-c2ccc(C(=O)NCCN3CCCC3)cc2)nc1C(=O)Nc1ccccc1` [Compound I-46, 3-amino-N-phenyl-6-(4-(2-(pyrrolidin-1-yl)ethylcarbamoyl)phenyl) pyrazine-2-carboxamide], for which the Ki lay in the range of 100 to 5000 nM. As to `Nc1ncc(-c2cccnc2)nc1C(=O)Nc1ccccc1OC(F)(F)F` [Compound I-102, 3-amino-6-(pyridin-3-yl)-N-(2-(trifluoromethoxy)phenyl)pyrazine-2-carboxamide], the inhibition constant (Ki) was in the range of 10 to 100 nM.

For `Nc1ncc(-c2ccc(S(=O)(=O)N3CCCC3)cc2)nc1-c1nc2ccccc2[nH]1` [Compound I-134, 3-(1H-benzo[d]imidazol-2-yl)-5-(4-(pyrrolidin-1-ylsulfonyl)phenyl) pyrazin-2-amine], the Ki is no more than 10 nM. With `NC(=O)c1cccc(-c2cnc(N)c(C(=O)Nc3ccccc3)n2)c1` [Compound I-18, 3-amino-6-(3-carbamoylphenyl)-N-phenylpyrazine-2-carboxamide], the Ki lay in the range of 100 to 5000 nM.

On to `Nc1ccccc1-c1cnc(N)c(-c2nnc(-c3ccccc3)o2)n1` [IA-58], for which the Ki was 10 to 100 nM. `CC(C)S(=O)(=O)c1ccc(-c2cnc(N)c(-c3nnc(CC(=O)O)o3)n2)cc1` [IA-78, 2-[5-[3-amino-6-(4-isopropylsulfonylphenyl)pyrazin-2-yl]-1,3,4-oxadiazol-2-yl]acetic acid]: the Ki was in the range of 10 to 100 nM. In the case of `CNCc1ccc(-c2cc(-c3nc(-c4ccc(S(=O)(=O)C5CCOC5)cc4)cnc3N)on2)c(F)c1` (centres unmarked) [IIA-16, 3-[3-[2-fluoro-4-(methylaminomethyl)phenyl]isoxazol-5-yl]-5-(4-tetrahydrofuran-3-ylsulfonylphenyl)pyrazin-2-amine], the Ki is no more than 10 nM. Next, `CCc1ccccc1-c1cnc(N)c(-c2nnc(-c3ccccc3)o2)n1` [IA-57]: 100 to 5000 nM; `CS(=O)(=O)c1ccc(-c2cnc(N)c(C(=O)Nc3nc4ccccc4[nH]3)n2)cc1` [Compound V-11]: no more than 10 nM; `CC(C)S(=O)(=O)c1ccc(-c2cnc(N)c(-c3nnc(-c4cccc(CN(C)C)c4)o3)n2)cc1` [IA-204, 3-[5-[3-(dimethylaminomethyl)phenyl]-1,3,4-oxadiazol-2-yl]-5-(4-isopropylsulfonylphenyl)pyrazin-2-amine]: 10 to 100 nM.

For `Nc1ncc(-c2ccc(C(=O)NCCN3CCCCC3)cc2)nc1C(=O)Nc1ccccc1` [Compound I-49, 3-amino-N-phenyl-6-(4-(2-(piperidin-1-yl)ethylcarbamoyl)phenyl) pyrazine-2-carboxamide], the Ki fell in the range of 100 to 5000 nM. As for `CN(C)[C@@H]1CCN(S(=O)(=O)c2ccc(-c3cnc(N)c(-c4nnc(-c5ccccc5)o4)n3)cc2)C1` [IA-25], the figure is 10 to 100 nM.
